Biological target: Acetylcholinesterase (Electrophorus electricus, UniProt O42275)
Assay: Inhibition of eel AChE

Sequence of Acetylcholinesterase (O42275 whole entry): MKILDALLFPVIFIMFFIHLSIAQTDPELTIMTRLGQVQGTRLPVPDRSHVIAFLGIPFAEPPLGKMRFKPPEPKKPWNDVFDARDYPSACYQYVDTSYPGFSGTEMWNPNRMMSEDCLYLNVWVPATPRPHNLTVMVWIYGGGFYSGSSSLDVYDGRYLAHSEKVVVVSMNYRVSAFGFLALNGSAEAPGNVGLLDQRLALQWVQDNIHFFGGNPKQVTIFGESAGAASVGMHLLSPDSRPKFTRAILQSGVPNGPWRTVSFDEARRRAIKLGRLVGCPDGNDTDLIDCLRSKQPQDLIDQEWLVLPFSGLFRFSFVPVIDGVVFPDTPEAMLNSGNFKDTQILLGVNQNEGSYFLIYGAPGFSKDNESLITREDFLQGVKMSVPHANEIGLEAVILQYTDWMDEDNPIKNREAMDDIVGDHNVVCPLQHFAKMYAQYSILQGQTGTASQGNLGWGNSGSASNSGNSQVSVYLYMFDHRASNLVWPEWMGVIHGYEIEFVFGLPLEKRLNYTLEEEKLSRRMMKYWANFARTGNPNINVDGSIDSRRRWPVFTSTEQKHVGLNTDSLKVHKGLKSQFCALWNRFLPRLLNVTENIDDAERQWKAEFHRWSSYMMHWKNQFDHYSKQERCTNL

| SMILES | IC50 [µM] |
| --- | --- |
| C=Cc1cccc2c1N(CCCCCC)Cc1cc3c(cc1-2)OCO3 | < 5 |
| C=Cc1cccc2c1N(CCCC)Cc1cc3c(cc1-2)OCO3 | 2.66 |
| C=Cc1cccc2c1N(CCCCC)Cc1cc3c(cc1-2)OCO3 | < 5 |
| CCc1cccc2c1N(C)Cc1cc3c(cc1-2)OCO3 | 3 |
| C=Cc1cccc2c1N(C)Cc1cc3c(cc1-2)OCO3 | 2.89 |
| C=Cc1cccc2c1N(CCC)Cc1cc3c(cc1-2)OCO3 | 10.6 |
| CCCN1Cc2cc3c(cc2-c2cccc(CC)c21)OCO3 | 9.98 |
| CCCCN1Cc2cc3c(cc2-c2cccc(CC)c21)OCO3 | 5.44 |
| CCCCCN1Cc2cc3c(cc2-c2cccc(CC)c21)OCO3 | < 5 |
| CCc1cccc2c1N(CC)Cc1cc3c(cc1-2)OCO3 | 8.82 |
| CCCCCCN1Cc2cc3c(cc2-c2cccc(CC)c21)OCO3 | < 5 |
| C=Cc1cccc2c1N(CC)Cc1cc3c(cc1-2)OCO3 | 8.35 |

Source: ChEMBL document CHEMBL1144549, “Preparation of secolycorines against acetylcholinesterase” (Bioorg Med Chem, 2007)
